Reference: PMC7242711, “An integrated approach to unravel a crucial structural property required for the function of the insect steroidogenic Halloween protein Noppera-bo” (The Journal of Biological Chemistry, 2020)

Tests used:
[1] = target: T1, DmGSTE6 (Drosophila melanogaster, UniProt A1ZB71); test: fluorogenic GSH conjugation assay with […],4-DNADCF; format: biochemical
T1 construct: gene GstE6; full-length CDS, pCold-III, N-terminal MNHKV kept; E. coli BL21(DE3)
T1 sequence (A1ZB71 1-222): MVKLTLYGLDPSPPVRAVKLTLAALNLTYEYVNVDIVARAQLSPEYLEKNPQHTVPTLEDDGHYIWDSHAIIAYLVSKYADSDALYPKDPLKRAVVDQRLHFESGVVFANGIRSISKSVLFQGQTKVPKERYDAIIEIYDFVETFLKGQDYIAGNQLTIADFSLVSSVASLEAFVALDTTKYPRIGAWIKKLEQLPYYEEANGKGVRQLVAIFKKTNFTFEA

[2] = target: T2, DmNobo (Drosophila melanogaster, UniProt Q7JYX0, D113A); test: fluorogenic GSH conjugation assay with […],4-DNADCF; format: biochemical
T2 construct: gene GstE14; full-length CDS, pCold-III, N-terminal translation enhancing element MNHKV kept; E. coli BL21(DE3); homodimer

[3] = target: T3, DmGSTE9 (Drosophila melanogaster, UniProt A1ZB74); test: fluorogenic GSH conjugation assay with […],4-DNADCF; format: biochemical
T3 construct: gene GstE9; full-length CDS, pCold-III, N-terminal MNHKV kept; E. coli BL21(DE3)
T3 sequence (A1ZB74 1-221): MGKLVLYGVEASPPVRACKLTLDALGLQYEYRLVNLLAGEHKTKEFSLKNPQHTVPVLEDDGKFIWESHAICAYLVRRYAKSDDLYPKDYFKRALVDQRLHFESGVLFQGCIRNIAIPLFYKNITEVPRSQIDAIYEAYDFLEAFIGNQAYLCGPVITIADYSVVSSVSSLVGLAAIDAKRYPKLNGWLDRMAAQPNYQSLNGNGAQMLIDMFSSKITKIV

[4] = target: T4, DmNobo (Drosophila melanogaster, UniProt Q7JYX0); test: SPR, Biacore T200, protein immobilised on CM5 chip by amine coupling; format: binding
T4 construct: gene GstE14; full-length CDS, pCold-III, N-terminal translation enhancing element MNHKV kept; E. coli BL21(DE3); homodimer
Text: SPR, Biacore T200, protein immobilised on CM5 chip by amine coupling on DmNobo | Kd values between DmNobo WT and EST in the presence or absence of GSH were […]

[5] = target: T4, DmNobo; test: fluorogenic GSH conjugation assay with […],4-DNADCF; format: biochemical; details: 1 mM GSH, 1 μM 3,4-DNADCF (final, after equal-volume mixing), 100 mM sodium phosphate pH 6.5, 0.01% Tween 20; H-site
[6] = target: T5, AgNobo (Anopheles gambiae, UniProt Q8WQJ5, D111A); test: fluorogenic GSH conjugation assay with […],4-DNADCF; format: biochemical
T5 construct: gene GSTe8; full-length CDS, pCold-III, N-terminal MNHKV kept; E. coli BL21(DE3)
T5 sequence (Q8WQJ5 1-217 D111A): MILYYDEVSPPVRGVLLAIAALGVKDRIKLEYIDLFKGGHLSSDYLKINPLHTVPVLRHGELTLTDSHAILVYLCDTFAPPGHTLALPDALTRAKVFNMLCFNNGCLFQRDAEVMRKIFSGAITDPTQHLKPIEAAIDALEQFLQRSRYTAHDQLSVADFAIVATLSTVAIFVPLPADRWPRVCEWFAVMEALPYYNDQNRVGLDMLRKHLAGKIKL

[7] = target: T6, AgNobo (Anopheles gambiae, UniProt Q8WQJ5); test: fluorogenic GSH conjugation assay with […],4-DNADCF; format: biochemical
T6 construct: gene GSTe8; full-length CDS, pCold-III, N-terminal MNHKV kept; E. coli BL21(DE3)
T6 sequence (Q8WQJ5 1-217): T5 sequence (Q8WQJ5 1-217 D111A)

T4 sequence (Q7JYX0 whole entry): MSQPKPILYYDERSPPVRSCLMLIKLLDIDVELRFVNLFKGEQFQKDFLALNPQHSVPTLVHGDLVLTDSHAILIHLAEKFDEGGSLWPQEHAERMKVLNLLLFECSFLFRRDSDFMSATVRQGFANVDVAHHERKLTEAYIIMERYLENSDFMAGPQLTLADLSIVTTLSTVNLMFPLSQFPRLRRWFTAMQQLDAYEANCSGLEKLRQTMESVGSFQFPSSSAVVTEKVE
T2 sequence (Q7JYX0 whole entry D113A): as the sequence (Q7JYX0 whole entry) above, with D113A counted along it

With `C[C@]12CC[C@@H]3c4ccc(O)cc4CC[C@H]3[C@@H]1CC[C@@H]2O` [17β-estradiol] the IC50 [1] was over 25 µM, the IC50 [2] was over 25 µM and the IC50 [3] was over 25 µM. For the same compound, the Kd [4] was 0.48 ± 0.1 µM, the IC50 [5] was 2.33 µM and the IC50 [6] was over 25 µM. The IC50 [7] was 2.07 µM.
